Results on six compounds are retold here after PMC11857663, “Geliboluols A–D: Kaurane-Type Diterpenoids from the Marine-Derived Rare Actinomycete Actinomadura geliboluensis” (Marine Drugs, 2025).

Common to all, as to format: cell-based
Test [1] relates to MDA-MB-231 (breast). Briefly: Sulforhodamine B (SRB) cytotoxicity assay, MDA-MB-231. The following applies: Homo sapiens; MDA-MB-231, SRB assay, 48 h; read-out: Growth inhibition 50% (GI50) MDA-MB-231. As for the experimental part: (§1) Compounds 1–5 were further evaluated for their cytotoxicity against six solid cancer cell lines and a normal cell line: ACHN (renal), MDA-MB-231 (breast), PC-3 (prostate), NUGC-3 (stomach), NCI-H23 (lung), HCT-15 (colon), and MRC-9 (lung fibroblast, normal cell line). […] Additionally, compounds 1–5 were evaluated for their antimicrobial properties by applying the broth microdilution method, described by the Clinical and Laboratory Standards Institute, against three Gram-positive bacteria, Bacillus subtilis (KCTC 1021), Micrococcus luteus (KCTC 1915), and Staphylococcus aureus (KCTC 1927), and three Gram-negative bacteria, Escherichia coli (KCTC 2441), Salmonella enterica serovar Typhimurium (KCTC 2515), and Klebsiella pneumoniae (KCTC 2690).
(§2) The cytotoxicity test was conducted with CTG luminescent cell viability and SRB assay according to the published procedures. Briefly, blood cancer cell lines and a normal cell line were obtained from the American Type Culture Collection (Manassas, VA, USA) (HL-60: acute myelogenous leukemia, Raji: Burkitt’s lymphoma, NALM6 C. G5: B-cell acute lymphocytic leukemia, K562: chronic myelogenous leukemia, U266: multiple myeloma, and RPMI-1788: B lymphocytes) and the DSMZ-German Collection of Microorganisms and Cell Cultures (WSU-DLCL2: diffuse large B-cell lymphoma and RPMI-8402: T-cell acute lymphocytic leukemia). The cell lines were incubated in RPMI 1640 supplemented with 10% fetal bovine serum, penicillin (100 IU/mL), and streptomycin (100 µg/mL) at 37 °C under a humidified atmosphere of 5% CO2. The cells with a passage number between 8 and 12 were used. The cell lines were prepared in an opaque-walled 96-well plate (8 × 10^3 cells/well), and the compounds (1–5 and doxorubicin as a positive control) with 0.1% DMSO were added to each well and incubated for 48 h. The cell cultures were then treated with 100 µL of CellTiter-Glo Reagent (Promega, Madison, WI, USA) and kept for 10 min to acquire a luminescence signal. Luminescence measurements were performed with the GloMax-Multi Detection System (Promega, Madison, WI, USA). The solid cancer cell lines and the normal cell line were obtained from the American Type Culture Collection (Manassas, VA, USA) (ACHN: renal, MDA-MB-231: breast, PC-3: prostate, NCI-H23: lung, HCT-15: colon, and MRC-9: lung fibroblast) and the Japanese Cancer Research Resources Bank (JCRB) (NUGC-3: stomach). The cell lines were incubated in RPMI 1640 supplemented with 10% fetal bovine serum, penicillin (100 IU/mL), and streptomycin (100 µg/mL) at 37 °C under a humidified atmosphere of 5% CO2. The cells with a passage number between 8 and 12 were used. The cells were then prepared in a 96-well plate (8 × 10^3 cells/well), and the compounds (1–5 and adriamycin as a positive control) with 0.1% DMSO were added to each well. After incubation for 48 h, the cell cultures were fixed using 50% trichloroacetic acid ([…]) and were dyed with 0.4% SRB in 1% acetic acid. Unbound dye was washed using 1% acetic acid and protein-bound dye was collected with 10 mM Tris base (pH 10.5) to measure optical density. Absorbance was measured at 540 nm with a VersaMax microplate reader (Molecular Devices, Sunnyvale, CA, USA) and GI50 values were calculated by GraphPad Prism 4.0 (GraphPad, San Diego, CA, USA).
Background: The SRB assay estimates cell density from bound dye.

Test [2] deals with RPMI-1788 (B lymphocytes, normal cell line). Briefly: CellTiter-Glo (CTG) cytotoxicity assay, RPMI-1788 normal cell line. To be noted: 48 h, read-out: Growth inhibition 50% (GI50) RPMI-1788. Here is the method: (§3) Compounds 1–5 were evaluated for their cytotoxicity against seven blood cancer cell lines, the most common cancer types in Korea, along with a normal cell line: HL-60 (acute myelogenous leukemia, AML), Raji (Burkitt’s lymphoma), WSU-DLCL2 (diffuse large B-cell lymphoma, DLBCL), NALM6 C. G5 (B-cell acute lymphocytic leukemia, B-ALL), K562 (chronic myelogenous leukemia, CML), RPMI-8402 (T-cell acute lymphocytic leukemia, T-ALL), U266 (multiple myeloma), and RPMI-1788 (B lymphocytes, normal cell line).
as §2
(In general: In ATP-based viability assays light output follows the ATP content of the culture.)

Test [3] concerns NCI-H23 (lung). Briefly: Sulforhodamine B (SRB) cytotoxicity assay, NCI-H23. To be noted: Homo sapiens, 48 h, read-out: Growth inhibition 50% (GI50) NCI-H23. As for the experimental part: as §1, §2
For test [4], the system named is blood cancer cell lines. Nature of the test: CTG cytotoxicity assay, panel of blood cancer cell lines. The following applies: 48 h, read-out: GI50 values against blood cancer cell lines (range over the panel). As for the experimental part:
as §3
(§4) The cytotoxicity test was conducted with CTG luminescent cell viability and SRB assay according to the published procedures. […] The cell cultures were then treated with 100 µL of CellTiter-Glo Reagent (Promega, Madison, WI, USA) and kept for 10 min to acquire a luminescence signal. Luminescence measurements were performed with the GloMax-Multi Detection System (Promega, Madison, WI, USA). […] Absorbance was measured at 540 nm with a VersaMax microplate reader (Molecular Devices, Sunnyvale, CA, USA) and GI50 values were calculated by GraphPad Prism 4.0 (GraphPad, San Diego, CA, USA).

For test [5], the system named is PC-3 (prostate). Nature of the test: Sulforhodamine B (SRB) cytotoxicity assay, PC-3. The following applies: PC-3, SRB assay, 48 h; read-out: Growth inhibition 50% (GI50) PC-3. As for the experimental part:
as §1, §2

Test [6] relates to WSU-DLCL2 (diffuse large B-cell lymphoma, DLBCL). Nature of the test: CellTiter-Glo (CTG) cytotoxicity assay, WSU-DLCL2. The following applies: Homo sapiens, WSUDLCL2, 48 h, read-out: Growth inhibition 50% (GI50) WSU-DLCL2. Here is the method: as §3, §2
Test [7] concerns Raji (Burkitt's lymphoma). Nature of the test: CellTiter-Glo (CTG) cytotoxicity assay, Raji. The following applies: Homo sapiens, 48 h, read-out: Growth inhibition 50% (GI50) Raji. Here is the method: as §3, §2
The subject of test [8] is solid cancer cell lines. Nature of the test: SRB cytotoxicity assay, panel of solid cancer cell lines. To be noted: six solid cancer cell lines or the normal cell line, 48 h, read-out: GI50 values against solid cancer cell lines (range over the panel). Here is the method:
as §1, §4

Test [9] deals with U266 (multiple myeloma). Nature of the test: CellTiter-Glo (CTG) cytotoxicity assay, U266. To be noted: Homo sapiens, U-266, 48 h, read-out: Growth inhibition 50% (GI50) U266. Here is the method:
as §3, §2

The test system of test [10] is HL-60 (acute myelogenous leukemia, AML). Nature of the test: CellTiter-Glo (CTG) cytotoxicity assay, HL-60. The following applies: Homo sapiens; HL-60, CTG assay, 48 h; read-out: Growth inhibition 50% (GI50) HL-60. Here is the method:
as §3, §2

For test [11], the system named is K562 (chronic myelogenous leukemia, CML). Briefly: CellTiter-Glo (CTG) cytotoxicity assay, K562. To be noted: Homo sapiens, 48 h, read-out: Growth inhibition 50% (GI50) K562. As for the experimental part:
as §3, §2

The subject of test [12] is NUGC-3 (stomach). Briefly: Sulforhodamine B (SRB) cytotoxicity assay, NUGC-3. To be noted: Homo sapiens; NUGC-3, SRB assay, 48 h; read-out: Growth inhibition 50% (GI50) NUGC-3. As for the experimental part: as §1, §2
The test system of test [13] is HCT-15 (colon). Briefly: Sulforhodamine B (SRB) cytotoxicity assay, HCT-15. The following applies: Homo sapiens; HCT-15, SRB assay, 48 h; read-out: Growth inhibition 50% (GI50) HCT-15. Here is the method:
as §1, §2

In test [14] the test system is RPMI-8402 (T-cell acute lymphocytic leukemia, T-ALL). Nature of the test: CellTiter-Glo (CTG) cytotoxicity assay, RPMI-8402. To be noted: Homo sapiens; RPMI-8402, CTG assay, 48 h; read-out: Growth inhibition 50% (GI50) RPMI-8402. As for the experimental part:
as §3, §2

Test [15] deals with NALM6 C. G5 (B-cell acute lymphocytic leukemia, B-ALL). Briefly: CellTiter-Glo (CTG) cytotoxicity assay, NALM6 C. G5. To be noted: Homo sapiens, NALM-6, 48 h, read-out: Growth inhibition 50% (GI50) NALM6 C. G5. Here is the method: as §3, §2
Test [16] deals with ACHN (renal). Nature of the test: Sulforhodamine B (SRB) cytotoxicity assay, ACHN. The following applies: Homo sapiens, 48 h, read-out: Growth inhibition 50% (GI50) ACHN. As for the experimental part:
as §1, §2

The subject of test [17] is MRC-9 (lung fibroblast, normal cell line). Briefly: Sulforhodamine B (SRB) cytotoxicity assay, MRC-9 normal cell line. To be noted: MRC9, 48 h, read-out: Growth inhibition 50% (GI50) MRC-9. Here is the method: as §1, §2

Some results are limits rather than exact numbers.

Regarding `C=C1C2CCC3(O)C4(C)CCCC(C)(CO)C4C(O)CC3(C2)C1O` (centres unmarked) [compound 4, geliboluol D], the 50% growth inhibitory concentration (GI50) (usually the concentration that inhibits growth by half) in test [1] is 5.73 µM; in test [2], 4.52 µM; in test [3] it was 5.13 µM; in test [4], 2.59 to 19.6 µM; in test [5], 6.5 µM; in [6] it was 3.48 µM. The concentration for 50% growth inhibition (GI50) in test [7] is 2.73 µM; in test [8], 4.34 to 7.23 µM; in test [9] it was > 30 µM; in test [10], 11.2 µM; in [11] it was 19.6 µM; in test [12], 4.34 µM. Besides, the concentration for 50% growth inhibition (GI50) in test [13] came out at 5.73 µM; in test [14], 8.51 µM; in [15] it was 2.59 µM; in [16], 4.58 µM; in [17], 7.23 µM.
Consider `C=C1C[C@@]23C[C@@H]1CC[C@]2(O)[C@@]1(C)CC[C@H](O)C(C)(C)[C@@H]1[C@H](O)C3` [compound 1, geliboluol A], for which the GI50 in test [1], in test [2], in test [3], in test [5], in test [6] and in test [7] was > 30 µM throughout. For the same compound, the 50% growth inhibitory concentration (GI50) in test [9], in test [10], in test [11], in [12], in test [13] and in test [14] was > 30 µM each time. Moreover, the GI50 in [15], in [16] and in [17] was > 30 µM in each case.
`C=C1C[C@@]23C[C@@H]1CC[C@]2(O)[C@@]1(C)CCC[C@@](C)(CO)[C@@H]1[C@H](O)C3` [compound 3, geliboluol C]: the GI50 in [1], in [2], in [3], in test [5], in test [6] and in [7] was > 30 µM throughout. The 50% growth inhibitory concentration (GI50) in test [9], in test [10], in test [11], in test [12], in [13] and in test [14] was > 30 µM throughout. For the same compound, the GI50 in test [15], in test [16] and in test [17] was > 30 µM throughout.
In the case of `C=C1C[C@@]23C[C@@H]1CC[C@]2(O)[C@@]1(C)CCCC(C)(C)[C@@H]1[C@H](O)C3` [compound 5], the GI50 in [1] was > 30 µM; in test [2], 9.56 µM; in [3], > 30 µM; in test [5], > 30 µM; in test [6] it was 5.93 µM; in test [7], 4.58 µM. Moreover, the 50% growth inhibitory concentration (GI50) in [9] was 22.5 µM; in test [10], 16.4 µM; in test [11], 11.9 µM; in [12], > 30 µM; in test [13], > 30 µM; in test [14], 11.1 µM. Moreover, the 50% growth inhibitory concentration (GI50) was 7.34 µM in test [15], > 30 µM in test [16] and > 30 µM in [17].
With `COc1cccc2c1C(=O)c1c(O)c3c(c(O)c1C2=O)C[C@@](O)(C(=O)CO)C[C@@H]3O[C@H]1C[C@H](N)[C@H](O)[C@H](C)O1` [Doxorubicin, reference compound], the GI50 in test [1] turned out to be 0.21 µM; in [2], 0.012 µM; in test [3], 0.221 µM; in [5] it was 0.106 µM; in test [6] it was 0.008 µM; in [7], 0.014 µM. Besides, the concentration for 50% growth inhibition (GI50) amounted to 0.112 µM in test [9]; 0.029 µM in test [10]; 0.094 µM in test [11]; 0.245 µM in [12]; 0.305 µM in test [13]; 0.035 µM in test [14]. In addition, the GI50 is 0.007 µM in test [15], 0.222 µM in [16] and 0.314 µM in test [17].
As to `C=C1C[C@@]23C[C@@H]1CC[C@]2(O)[C@@]1(C)[C@@H](O)CCC(C)(C)[C@@H]1[C@H](O)C3` [compound 2, geliboluol B], the GI50 in [1], in test [2], in test [3], in [5], in test [6] and in [7] was > 30 µM in each case. The GI50 in test [9], in [10], in test [11], in test [12], in test [13] and in test [14] was > 30 µM in each case. For the same compound, the GI50 in test [15], in test [16] and in [17] was > 30 µM in each case.
